Biological target: T1, recombinant human FLAP protein (Homo sapiens, UniProt P20292)
T1 construct: made in house; host or cells: Sf9 insect cells (100,000 x g membrane pellet)
T1 sequence (P20292 1-161): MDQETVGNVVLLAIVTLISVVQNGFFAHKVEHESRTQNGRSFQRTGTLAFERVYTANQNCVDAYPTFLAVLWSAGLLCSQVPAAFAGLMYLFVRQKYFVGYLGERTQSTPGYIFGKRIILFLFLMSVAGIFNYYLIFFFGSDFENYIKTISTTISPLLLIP
Test: FLAP binding assay, Scintillation Proximity Assay, displacement of [125I]L-691,831
Conditions: read-out: hFLAP binding IC50
Description: Compounds are assessed for the ability to bind to FLAP in a binding assay that measures compound-specific displacement of an iodinated (^1251) FLAP inhibitor via a Scintillation Proximity Assay format (adapted from S. Charleson et al., Mol. Pharmacol., 1992, 41, 873-879).
Cell pellets produced from sf9 insect cells expressing recombinant human FLAP protein are resuspended in buffer A [15 mM Tris-HCl (pH 7.5), 2 mM MgCl2, 0.3 mM EDTA, 1 mM PMSF]. The cells are lysed with a Dounce homogenizer and the material is centrifuged at 10,000×g for 10 minutes. The supernatant is then collected and centrifuged at 100,000×g for 60 minutes. To prepare membrane protein for an assay, an aliquot of the 100,000×g pellet is resuspended in 1 ml of buffer A, Dounce homogenized, and finally subjected to polytron mixing (30 seconds). Membrane protein (25 μl, 5 μg) is mixed with WGA SPA beads (Amersham) and stirred for 1 h. To an assay plate (Perkin Elmer FlexiPlate) is added 25 μl of test compound prepared in Binding buffer [100 mM Tris (pH 7.5), 140 mM NaCl, 5% glycerol, 2 mM EDTA, 0.5 mM TCEP, 0.05% Tween 20], 25 μl of [^125I]L-691,831 (an iodinated analog of MK-591, Charleson et al. Mol. Pharmacol., 41, 873-879, 1992) and finally 50 μl of the bead/protein mixture. (final concentrations: beads, 200 μg/well; protein, 5 μg/well; [^125I] probe, 0 08 nM/well (17 nCi/well). The plates are shaken for 2 h before reading on a Microbeta plate reader. Non-specific binding is determined by the addition of 10 μM cold L-691,831 compound.

| Compound | IC50 |
| --- | --- |
| CC(C)(C)C(=O)c1c(CC(C)(C)C(=O)O)c(C(=O)c2ccc(Cl)cc2)c2ccc(OCc3ccccn3)cn12 [3-{1-[(4-chlorophenyl)carbonyl]-3-(2,2-dimethylpropanoyl)-6-(pyridin-2-ylmethoxy)indolizin-2-yl}-2,2-dimethylpropanoic acid] | 79 nM |
| CCC(C)(Cc1c(C(=O)C(C)(C)C)c2cc(OCc3cccc(C)n3)ccn2c1C(=O)c1ccc(OC)cc1)C(=O)O (centres unmarked) [2-({1-(2,2-dimethylpropanoyl)-3-[(4-methoxyphenyl)carbonyl]-7-[(6-methylpyridin-2-yl)methoxy]indolizin-2-yl}methyl)-2-methylbutanoic acid] | 2 nM |
| CCCC(Cc1c(C(=O)C(C)(C)C)c2cc(OCc3cccc(C)n3)ccn2c1C(=O)c1ccc(OC)cc1)C(=O)O (centres unmarked) [2-({1-(2,2-dimethylpropanoyl)-3-[(4-methoxyphenyl)carbonyl]-7-[(6-methylpyridin-2-yl)methoxy]indolizin-2-yl}methyl)pentanoic acid] | 3 nM |
| COc1ccc(C(=O)c2c(CC(C)(C)C(=O)O)c(C(=O)C(C)(C)C)c3cc(OCc4nc5ccccc5s4)ccn23)cc1 | 1 nM |
| COc1ccc(C(=O)c2c(CC(C(=O)O)C(C)C)c(C(=O)C(C)(C)C)c3cc(OCc4nc(C)cs4)ccn23)cc1 (centres unmarked) [2-({1-(2,2-dimethylpropanoyl)-3-[(4-methoxyphenyl)carbonyl]-7-[(4-methyl-1,3-thiazol-2-yl)methoxy]indolizin-2-yl}methyl)-3-methylbutanoic acid] | 4 nM |
| COc1cncc(-c2ccc(C(=O)c3c(CC(C)(C)C(=O)O)c(C(=O)C(C)(C)C)c4cc(OCc5ccccn5)ccn34)cc2)c1 [3-[1-(2,2-dimethylpropanoyl)-3-{[4-(5-methoxypyridin-3-yl)phenyl]carbonyl}-7-(pyridin-2-ylmethoxy)indolizin-2-yl]-2,2-dimethylpropanoic acid] | 22 nM |
| Cc1cccc(COc2ccn3c(C(=O)c4ccc(Cl)c(Cl)c4)c(CC(C)(C)C(=O)O)c(C(=O)C(C)(C)C)c3c2)n1 [3-{3-[(3,4-dichlorophenyl)carbonyl]-1-(2,2-dimethylpropanoyl)-7-[(6-methylpyridin-2-yl)methoxy]indolizin-2-yl}-2,2-dimethylpropanoic acid] | 1 nM |
| Cc1ccc(C(=O)c2c(CC(C)(C)C(=O)O)c(C(=O)C(C)(C)C)c3cc(OCc4cccc(C)n4)ccn23)cc1 [3-{1-(2,2-dimethylpropanoyl)-3-[(4-methylphenyl)carbonyl]-7-[(6-methylpyridin-2-yl)methoxy]indolizin-2-yl}-2,2-dimethylpropanoic acid] | 3 nM |
| CCC(C)(Cc1c(C(=O)C(C)(C)C)c2cc(OCc3csc(C)n3)ccn2c1C(=O)c1ccc(OC)cc1)C(=O)O (centres unmarked) [2-({1-(2,2-dimethylpropanoyl)-3-[(4-methoxyphenyl)carbonyl]-7-[(2-methyl-1,3-thiazol-4-yl)methoxy]indolizin-2-yl}methyl)-2-methylbutanoic acid] | 2 nM |
| COc1ccncc1-c1ccc(C(=O)c2c(CC(C)(C)C(=O)O)c(C(=O)C(C)(C)C)c3cc(OCc4ccccn4)ccn23)cc1 [3-[1-(2,2-dimethylpropanoyl)-3-{[4-(4-methoxypyridin-3-yl)phenyl]carbonyl}-7-(pyridin-2-ylmethoxy)indolizin-2-yl]-2,2-dimethylpropanoic acid] | 67 nM |
| CCCC(Cc1c(C(=O)C(C)(C)C)c2cc(OCc3nc(C)cs3)ccn2c1C(=O)c1ccc(Cl)c(Cl)c1)C(=O)O (centres unmarked) [2-({3-[(3,4-dichlorophenyl)carbonyl]-1-(2,2-dimethylpropanoyl)-7-[(4-methyl-1,3-thiazol-2-yl)methoxy]indolizin-2-yl}methyl)pentanoic acid] | 15 nM |
| Cc1nc(COc2ccn3c(C(=O)c4ccc(Cl)cc4)c(CC(C)(C)C(=O)O)c(C(=O)C(C)(C)C)c3c2)no1 | 90 nM |
| CC(C)c1ccn2c(C(=O)c3ccc(C(F)(F)F)cc3)c(CC(C)(C)C(=O)O)c(C(=O)C(C)(C)C)c2c1 [3-[1-(2,2-dimethylpropanoyl)-7-(propan-2-yl)-3-{[4-(trifluoromethyl)phenyl]carbonyl}indolizin-2-yl]-2,2-dimethylpropanoic acid] | 316 nM |
| CCCC(Cc1c(C(=O)C(C)(C)C)c2cc(OCc3cccc(C)n3)ccn2c1C(=O)c1ccc(Cl)c(C)c1)C(=O)O (centres unmarked) [2-({3-[(4-chloro-3-methylphenyl)carbonyl]-1-(2,2-dimethylpropanoyl)-7-[(6-methylpyridin-2-yl)methoxy]indolizin-2-yl}methyl)pentanoic acid] | 3 nM |
| CC(C)c1ccn2c(C(=O)c3ccc(-c4cccnc4)cc3)c(CC(C)(C)C(=O)O)c(C(=O)C(C)(C)C)c2c1 [3-[1-(2,2-dimethylpropanoyl)-7-(propan-2-yl)-3-{[4-(pyridin-3-yl)phenyl]carbonyl}indolizin-2-yl]-2,2-dimethylpropanoic acid] | 165 nM |

Continued, values first:

| IC50 | Compound |
| --- | --- |
| 8 nM | CC(C)(C)C(=O)c1c(CC(C)(C)C(=O)O)c(C(=O)c2ccc(Cl)cc2)n2ccc(OCc3ccc4ccccc4n3)cc12 [3-{3-[(4-chlorophenyl)carbonyl]-1-(2,2-dimethylpropanoyl)-7-(quinolin-2-ylmethoxy)indolizin-2-yl}-2,2-dimethylpropanoic acid] |
| 64 nM | CC(C)(C)C(=O)c1c(CC(C)(C)C(=O)O)c(C(=O)c2ccc(Cl)cc2)n2ccc(OCc3ncccn3)cc12 [3-{3-[(4-chlorophenyl)carbonyl]-1-(2,2-dimethylpropanoyl)-7-(pyrimidin-2-ylmethoxy)indolizin-2-yl}-2,2-dimethylpropanoic acid] |
| 1 nM | Cc1nc(COc2ccn3c(C(=O)c4cc(Cl)cc(Cl)c4)c(CC(C)(C)C(=O)O)c(C(=O)C(C)(C)C)c3c2)cs1 [3-{3-[(3,5-dichlorophenyl)carbonyl]-1-(2,2-dimethylpropanoyl)-7-[(2-methyl-1,3-thiazol-4-yl)methoxy]indolizin-2-yl}-2,2-dimethylpropanoic acid] |
| 7 nM | COc1ccc(C(=O)c2c(C[C@@H](C(=O)O)C(C)C)c(C(=O)C(C)(C)C)c3cc(OCc4csc(C)n4)ccn23)cc1 [(2R)-2-({1-(2,2-dimethylpropanoyl)-3-[(4-methoxyphenyl)carbonyl]-7-[(2-methyl-1,3-thiazol-4-yl)methoxy]indolizin-2-yl}methyl)-3-methylbutanoic acid] |
| 1 nM | Cc1csc(COc2ccn3c(C(=O)c4ccc(Cl)c(C)c4)c(CC(C)(C)C(=O)O)c(C(=O)C(C)(C)C)c3c2)n1 [3-{3-[(4-chloro-3-methylphenyl)carbonyl]-1-(2,2-dimethylpropanoyl)-7-[(4-methyl-1,3-thiazol-2-yl)methoxy]indolizin-2-yl}-2,2-dimethylpropanoic acid] |
| 1 nM | Cc1csc(COc2ccn3c(C(=O)c4cccc(Cl)c4)c(CC(C)(C)C(=O)O)c(C(=O)C(C)(C)C)c3c2)n1 [3-{3-[(3-chlorophenyl)carbonyl]-1-(2,2-dimethylpropanoyl)-7-[(4-methyl-1,3-thiazol-2-yl)methoxy]indolizin-2-yl}-2,2-dimethylpropanoic acid] |
| 2 nM | Cc1nc(COc2ccn3c(C(=O)c4ccc(Cl)c(C)c4)c(CC(C)(C)C(=O)O)c(C(=O)C(C)(C)C)c3c2)cs1 [3-{3-[(4-chloro-3-methylphenyl)carbonyl]-1-(2,2-dimethylpropanoyl)-7-[(2-methyl-1,3-thiazol-4-yl)methoxy]indolizin-2-yl}-2,2-dimethylpropanoic acid] |
| 69 nM | COc1nc(COc2ccn3c(C(=O)c4ccc(Cl)cc4)c(CC(C)(C)C(=O)O)c(C(=O)C(C)(C)C)c3c2)cs1 [3-{3-[(4-chlorophenyl)carbonyl]-1-(2,2-dimethylpropanoyl)-7-[(2-methoxy-1,3-thiazol-4-yl)methoxy]indolizin-2-yl}-2,2-dimethylpropanoic acid] |
| 58 nM | COc1c(C)cnc(COc2ccn3c(C(=O)c4ccc(Cl)cc4)c(CC(C)(C)C(=O)O)c(C(=O)C(C)(C)C)c3c2)c1C [3-{3-[(4-chlorophenyl)carbonyl]-1-(2,2-dimethylpropanoyl)-7-[(4-methoxy-3,5-dimethylpyridin-2-yl)methoxy]indolizin-2-yl}-2,2-dimethylpropanoic acid] |
| 156 nM | CC(C)c1ccn2c(C(=O)N(C)c3ccc(Br)cc3)c(CC(C)(C)C(=O)O)c(C(=O)C(C)(C)C)c2c1 [3-{3-[(4-bromophenyl)(methyl)carbamoyl]-1-(2,2-dimethylpropanoyl)-7-(propan-2-yl)indolizin-2-yl}-2,2-dimethylpropanoic acid] |
| 8 nM | COc1ccnc(COc2ccn3c(C(=O)c4ccc(Cl)cc4)c(CC(C)(C)C(=O)O)c(C(=O)C(C)(C)C)c3c2)c1 [3-{3-[(4-chlorophenyl)carbonyl]-1-(2,2-dimethylpropanoyl)-7-[(4-methoxypyridin-2-yl)methoxy]indolizin-2-yl}-2,2-dimethylpropanoic acid] |

— patent US8618300B2, “Indolizine inhibitors of leukotriene production” (Boehringer Ingelheim International GmbH, priority 2008, dated 2013)
